Among the test systems are Mycosphaerella fijiensis; Fusarium graminearum; Septoria tritici.
What all share (format): cell-based

For “NLCEKASKTWTGNCGNTKHCDTQCKNWEGAKHGACHVRNGKWKCFCYFNC (Defensin like) [L6-69]”, the “Antifungal activity, Mycosphaerella fijiensis (improvement compared to DmAMP1)” value in the assay on Mycosphaerella fijiensis is listed as “+ (key: + indicating 1- to 5-fold improvement compared to DmAMP1; ++ indicating >5- to 10-fold improvement; +++ indicating >10-fold improvement)”. The “Antifungal activity, Fusarium graminearum (improvement compared to DmAMP1)” value in the assay on Fusarium graminearum is reported as “+++ (key: + indicating 1- to 5-fold improvement compared to DmAMP1; ++ indicating >5- to 10-fold improvement; +++ indicating >10-fold improvement)”. Also, the “Antifungal activity, Septoria tritici (improvement compared to DmAMP1)” value with Septoria tritici is reported as “+++ (key: + indicating 1- to 5-fold improvement compared to DmAMP1; ++ indicating >5- to 10-fold improvement; +++ indicating >10-fold improvement)”.

For the sequence “NLCEKASKTWSGNCGNTKHCDTQCRNWEGAKHGACHVRNGKHKCFCYFNC (Defensin like) [L6-13]”, the “Antifungal activity, Mycosphaerella fijiensis (improvement compared to DmAMP1)” value in the assay on Mycosphaerella fijiensis is listed as “++ (key: + indicating 1- to 5-fold improvement compared to DmAMP1; ++ indicating >5- to 10-fold improvement; +++ indicating >10-fold improvement)”. Also, the “Antifungal activity, Fusarium graminearum (improvement compared to DmAMP1)” value with Fusarium graminearum is on record as “+++ (key: + indicating 1- to 5-fold improvement compared to DmAMP1; ++ indicating >5- to 10-fold improvement; +++ indicating >10-fold improvement)”. Further, the “Antifungal activity, Septoria tritici (improvement compared to DmAMP1)” value in the assay with Septoria tritici was “+++ (key: + indicating 1- to 5-fold improvement compared to DmAMP1; ++ indicating >5- to 10-fold improvement; +++ indicating >10-fold improvement)”.

On to “NLCERASKTWSGNCGNTKHCDTQCRNWEGAKHGACHKRSGKWKCFCYFNC (Defensin like) [L9-09]”, for which, in the assay on Mycosphaerella fijiensis, the “Antifungal activity, Mycosphaerella fijiensis (improvement compared to DmAMP1)” value is “+ (key: + indicating 1- to 5-fold improvement compared to DmAMP1; ++ indicating >5- to 10-fold improvement; +++ indicating >10-fold improvement)”. In the assay with Fusarium graminearum, the “Antifungal activity, Fusarium graminearum (improvement compared to DmAMP1)” value is given as “+++ (key: + indicating 1- to 5-fold improvement compared to DmAMP1; ++ indicating >5- to 10-fold improvement; +++ indicating >10-fold improvement)”. The “Antifungal activity, Septoria tritici (improvement compared to DmAMP1)” value in the assay with Septoria tritici is “+ (key: + indicating 1- to 5-fold improvement compared to DmAMP1; ++ indicating >5- to 10-fold improvement; +++ indicating >10-fold improvement)”.

As to “NLCEKASKTWTGNCGNTKHCDNQCRNWEGAAHGACHKRSGKWKCFCYFNC (Defensin like) [L9-36]”, the “Antifungal activity, Mycosphaerella fijiensis (improvement compared to DmAMP1)” value in the assay with Mycosphaerella fijiensis is reported as “+ (key: + indicating 1- to 5-fold improvement compared to DmAMP1; ++ indicating >5- to 10-fold improvement; +++ indicating >10-fold improvement)”. In addition, the “Antifungal activity, Fusarium graminearum (improvement compared to DmAMP1)” value in the assay with Fusarium graminearum is on record as “+ (key: + indicating 1- to 5-fold improvement compared to DmAMP1; ++ indicating >5- to 10-fold improvement; +++ indicating >10-fold improvement)”. Besides, the “Antifungal activity, Septoria tritici (improvement compared to DmAMP1)” value in the assay on Septoria tritici is given as “+ (key: + indicating 1- to 5-fold improvement compared to DmAMP1; ++ indicating >5- to 10-fold improvement; +++ indicating >10-fold improvement)”.

“NLCERASKTWTGNCGNTKHCDNQCKSWEGAAHGACHVRSGKHKCFCYFNC (Defensin like) [L6-39]”: the “Antifungal activity, Mycosphaerella fijiensis (improvement compared to DmAMP1)” value with Mycosphaerella fijiensis is “+ (key: + indicating 1- to 5-fold improvement compared to DmAMP1; ++ indicating >5- to 10-fold improvement; +++ indicating >10-fold improvement)”. For the same sequence, the “Antifungal activity, Fusarium graminearum (improvement compared to DmAMP1)” value with Fusarium graminearum was “+++ (key: + indicating 1- to 5-fold improvement compared to DmAMP1; ++ indicating >5- to 10-fold improvement; +++ indicating >10-fold improvement)”. Further, the “Antifungal activity, Septoria tritici (improvement compared to DmAMP1)” value in the assay with Septoria tritici was “++ (key: + indicating 1- to 5-fold improvement compared to DmAMP1; ++ indicating >5- to 10-fold improvement; +++ indicating >10-fold improvement)”.

With “NLCEKASKTWSGNCGNTKHCDTQCRNWEGAKHGACHKRNGKWKCFCYFNC (Defensin like) [L9-46]”, in the assay with Mycosphaerella fijiensis, the “Antifungal activity, Mycosphaerella fijiensis (improvement compared to DmAMP1)” value is “++ (key: + indicating 1- to 5-fold improvement compared to DmAMP1; ++ indicating >5- to 10-fold improvement; +++ indicating >10-fold improvement)”. The “Antifungal activity, Fusarium graminearum (improvement compared to DmAMP1)” value in the assay on Fusarium graminearum is given as “+++ (key: + indicating 1- to 5-fold improvement compared to DmAMP1; ++ indicating >5- to 10-fold improvement; +++ indicating >10-fold improvement)”. Further, the “Antifungal activity, Septoria tritici (improvement compared to DmAMP1)” value in the assay with Septoria tritici was “+++ (key: + indicating 1- to 5-fold improvement compared to DmAMP1; ++ indicating >5- to 10-fold improvement; +++ indicating >10-fold improvement)”.

Regarding “DGVKLCERPSKTWSGHCGNTKHCDKQCRSWEGAAHGACHVRNGKWKCFCYFNC (Defensin like) [L7-94]”, in the assay with Mycosphaerella fijiensis, the “Antifungal activity, Mycosphaerella fijiensis (improvement compared to DmAMP1)” value was “+ (key: + indicating 1- to 5-fold improvement compared to DmAMP1; ++ indicating >5- to 10-fold improvement; +++ indicating >10-fold improvement)”. In addition, in the assay on Fusarium graminearum, the “Antifungal activity, Fusarium graminearum (improvement compared to DmAMP1)” value was “++ (key: + indicating 1- to 5-fold improvement compared to DmAMP1; ++ indicating >5- to 10-fold improvement; +++ indicating >10-fold improvement)”. In addition, the “Antifungal activity, Septoria tritici (improvement compared to DmAMP1)” value in the assay on Septoria tritici is “+ (key: + indicating 1- to 5-fold improvement compared to DmAMP1; ++ indicating >5- to 10-fold improvement; +++ indicating >10-fold improvement)”.

Turning to “NLCERASKTWSGNCGNTKHCDTQCRNWEGAKHGACHKRNGKWKCFCYFNC (Defensin like) [L9-32]”, in the assay with Mycosphaerella fijiensis, the “Antifungal activity, Mycosphaerella fijiensis (improvement compared to DmAMP1)” value was “+ (key: + indicating 1- to 5-fold improvement compared to DmAMP1; ++ indicating >5- to 10-fold improvement; +++ indicating >10-fold improvement)”. In addition, the “Antifungal activity, Fusarium graminearum (improvement compared to DmAMP1)” value with Fusarium graminearum is on record as “++ (key: + indicating 1- to 5-fold improvement compared to DmAMP1; ++ indicating >5- to 10-fold improvement; +++ indicating >10-fold improvement)”. Further, the “Antifungal activity, Septoria tritici (improvement compared to DmAMP1)” value with Septoria tritici is listed as “+ (key: + indicating 1- to 5-fold improvement compared to DmAMP1; ++ indicating >5- to 10-fold improvement; +++ indicating >10-fold improvement)”.

Turning to “NLCERASKTWTGNCGNTKHCDTQCRSWEGAAHGACHVRSGKHKCFCYFNC (Defensin like) [L5-23]”, the “Antifungal activity, Mycosphaerella fijiensis (improvement compared to DmAMP1)” value with Mycosphaerella fijiensis is listed as “+ (key: + indicating 1- to 5-fold improvement compared to DmAMP1; ++ indicating >5- to 10-fold improvement; +++ indicating >10-fold improvement)”. In addition, the “Antifungal activity, Fusarium graminearum (improvement compared to DmAMP1)” value in the assay on Fusarium graminearum was “+ (key: + indicating 1- to 5-fold improvement compared to DmAMP1; ++ indicating >5- to 10-fold improvement; +++ indicating >10-fold improvement)”. Further, the “Antifungal activity, Septoria tritici (improvement compared to DmAMP1)” value in the assay on Septoria tritici was “+ (key: + indicating 1- to 5-fold improvement compared to DmAMP1; ++ indicating >5- to 10-fold improvement; +++ indicating >10-fold improvement)”.

Take “NLCERASKTWSGNCGNTKHCDNQCKNWEGAKHGACHVRNGKHKCFCYFNC [L6-60] (Defensin like)”: the “Antifungal activity, Mycosphaerella fijiensis (improvement compared to DmAMP1)” value with Mycosphaerella fijiensis is recorded as “+ (key: + indicating 1- to 5-fold improvement compared to DmAMP1; ++ indicating >5- to 10-fold improvement; +++ indicating >10-fold improvement)”. Further, the “Antifungal activity, Fusarium graminearum (improvement compared to DmAMP1)” value in the assay with Fusarium graminearum is reported as “+++ (key: + indicating 1- to 5-fold improvement compared to DmAMP1; ++ indicating >5- to 10-fold improvement; +++ indicating >10-fold improvement)”. Besides, the “Antifungal activity, Septoria tritici (improvement compared to DmAMP1)” value with Septoria tritici was “+++ (key: + indicating 1- to 5-fold improvement compared to DmAMP1; ++ indicating >5- to 10-fold improvement; +++ indicating >10-fold improvement)”.

With “NLCEKASKTWSGNCGNTKHCDNQCRSWEGAKHGACHVRNGKHKCFCYFNC (Defensin like) [L9-23]”, in the assay with Mycosphaerella fijiensis, the “Antifungal activity, Mycosphaerella fijiensis (improvement compared to DmAMP1)” value was “++ (key: + indicating 1- to 5-fold improvement compared to DmAMP1; ++ indicating >5- to 10-fold improvement; +++ indicating >10-fold improvement)”. Also, the “Antifungal activity, Fusarium graminearum (improvement compared to DmAMP1)” value in the assay with Fusarium graminearum is given as “+++ (key: + indicating 1- to 5-fold improvement compared to DmAMP1; ++ indicating >5- to 10-fold improvement; +++ indicating >10-fold improvement)”. In addition, the “Antifungal activity, Septoria tritici (improvement compared to DmAMP1)” value with Septoria tritici is given as “++ (key: + indicating 1- to 5-fold improvement compared to DmAMP1; ++ indicating >5- to 10-fold improvement; +++ indicating >10-fold improvement)”.
